Measured values taken from article PMC9223764, “In Vitro Selection and Characterization of HIV-1 Variants with Increased Resistance to LP-40, Enfuvirtide-Based Lipopeptide Inhibitor” (International Journal of Molecular Sciences, 2022).
Values joined by “and” are separate entries in the source; they are usually repeats but may differ in a detail not shown here. Equal entries are not always repeated. Where two headings read alike, the source gives them in different places. Where a SMILES comes first, the peptide text is derived from it. The star is where a group is joined. Palmitoyl = CCCCCCCCCCCCCCCC(=O)*

Tests used:
Assay type in all cases: cell-based
[1] = tested on: T20- and LP40-resistant mutant pseudoviruses of HIV-1 NL4-3; conditions: for Largest decrease in susceptibility among LP-40-resistant strains / Largest decrease in susceptibility among T20-resistant strains / Decrease in sensitivity, range over strains / Decrease in sensitivity, range over mutants / Decrease in sensitivity: relative to WT
Experimental: To simulate the sequence changes of viral resistance genes under different drug concentration pressures, we constructed the Env genes under different drug concentration pressures in the PCDNA3.1 vector and obtained a series of mutations. […] T20-V 6~12, T20-V 13~14, and T 20-V 15~18 were constructed at concentrations of 200 µM (P21), 400 µM (P24), and 2000 µM (P32), respectively. Similarly, the LP-40 pressure concentrations were 0.3 µM, 8 µM, 20 µM, and 200 µM, respectively, and the constructs were numbered LP40-V 1~5, LP40-V 6~8, LP40-V 9~11, and LP40-V 12~15. Resistance mutations will cause varying levels of damage to the function of the pseudoviral envelope proteins. Here, we explored how serial mutations affect the function of viral envelope proteins. Based on this problem, we performed a single round of quantitative P24-infection experiments, packaging the pseudovirus with a previously constructed series of mutant plasmids. We compared the invasion ability of the HIV-1 wild-type and mutant pseudoviruses toward target cells under the same P24 content (using the invasion capacity of each subtype as 100%).
The frequency of the T20-V8 strain was 1/12. From sequence alignment, except for the L33S, which appeared in all the sequences, the new mutation site of D36G/V38A/N42T was also introduced.
Among them, LP-40-inhibited LP40-V11 reached 3.3 µM. When the concentration of LP-40 rose to 200 µM, I37T disappeared, and L33S/D36G/V38A/N42T/I69V became the main mutation point.
The mutation G20V only appeared in T20-induced drug resistance, and the frequency was low. […] This mutation point N126K appeared in LP-40-induced drug resistance with a high frequency.
(§1) The infectivity of HIV Env mutants and the inhibitory activities of membrane fusion inhibitors on mutants in TZM-bl cells were measured using a single-cycle infection assay as described previously. Briefly, the HIV pseudovirus was packed using an Env-coding plasmid, and pSG3ΔEnv was co-transfected into HEK293T cells. pSG3ΔEnv encodes an Env-defective, luciferase-expressing HIV-1 genome. After the pseudoviruses were harvested and filtrated, the amount of pseudoviruses was fixed via P24 antigen, and their infectivity was determined in TZM-bl cells. In order to measure the inhibitory activities of the inhibitors, inhibitors diluted serially 3-fold were mixed with an equal volume of pseudoviruses, and then 100 µL 1 × 10^5/mL TZM-bl cells were added to the mixture and incubated at 37 °C with 5% CO2 for 48 h. After that, TZM-bl cells were lysed using reporter lysis buffer, and IC50 values were calculated according to luciferase activity measured by luciferase assay reagents and a luminescence counter (Promega, Madison, WI, USA).

[2] = tested on: HIV-1 NL4-3 gp41 E137K pseudovirus; conditions: Table 2; for IC50: E137K, TZM-bl cells, 48 h, luciferase, mean ± SD, triplicate, repeated three times
Experimental: (§2) The entry abilities of A15V, L57H, R68G, G86D, C87Y, E119G, and N140S were almost completely lost, corresponding to LP40-V6, LP40-V7, T20-V9, LP40-V3, LP40-V5, LP40-V4, and T20-V5, respectively, so it was determined that these mutation sites might be lethal mutations. […] The differences between the wild-type envelope proteins and serial mutant proteins in mediating membrane fusion were compared using a double-separated protein-based fusion experimental system. […] G20V, A21T, E119G, and Y127H had only an approximately 10% fusion capacity, and L33S, N42D, N42T, and N43S had less than 50% fusion capacity, but N140S had approximately 60% fusion capacity (Figure 6B). […] Among them, we selected the fusion ability of the sixth hour to evaluate the fusion activities of the mutant strains (Figure 6B).
(§3) Viral RNA was extracted from the supernatant, and, after reverse transcription, the cDNA was amplified using PCR. These amplified DNA were connected to the T-Easy vector and transformed to Trans 2-Blue Chemically Competent Cells. These sequences were determined via sequencing. The expression plasmids, which contained different HIV-1NL4-3 Env mutants, were constructed using DNA assembly (NEBuilder® HiFi DNA Assembly Master Mix). In brief, two primers were used to amplify Env, and the other two primers were used to amplify the vector fragment. The products of PCR were purified with a 20–25 bp overlap in the terminal of Env and the vector fragment Env and the vector fragment were added to the DNA assembly master mix at […] for 15 min and then transformed to Trans 2-Blue Chemically Competent Cells. Additionally, a single-point mutation was generated using double-stranded DNA templates and a selection of mutants with a restriction enzyme (DpnI) as described previously. The successful mutations were confirmed via sequencing.
as §1

[3] = tested on: HIV-1 NL4-3 gp41 N126K pseudovirus; conditions: Table 2; for IC50: N126K, TZM-bl cells, 48 h, luciferase, mean ± SD, triplicate, repeated three times
Experimental: as §2, §3, §1

[4] = tested on: HIV-1 NL4-3 gp41 D36G pseudovirus; conditions: Table 2; for IC50: D36G, TZM-bl cells, 48 h, luciferase, mean ± SD, triplicate, repeated three times
Experimental: as §2, §3, §1

[5] = tested on: HIV-1 NL4-3 gp41 Y127H pseudovirus; conditions: Table 2; for IC50: Y127H, TZM-bl cells, 48 h, luciferase, mean ± SD, triplicate, repeated three times
Experimental: as §2, §3, §1

[6] = tested on: HIV-1 NL4-3 gp41 V38A pseudovirus; conditions: Table 2; for IC50: V38A, TZM-bl cells, 48 h, luciferase, mean ± SD, triplicate, repeated three times
Experimental: as §2, §3, §1

[7] = tested on: HIV-1 NL4-3 gp41 N42T pseudovirus; conditions: Table 2; for IC50: N42T, TZM-bl cells, 48 h, luciferase, mean ± SD, triplicate, repeated three times
Experimental: as §2, §3, §1

[8] = tested on: HIV-1 NL4-3 gp41 A71V pseudovirus; conditions: Table 2; for IC50: A71V, TZM-bl cells, 48 h, luciferase, mean ± SD, triplicate, repeated three times
Experimental: as §2, §3, §1

[9] = tested on: HIV-1 NL4-3 gp41 G20V pseudovirus; conditions: Table 2; for IC50: G20V, TZM-bl cells, 48 h, luciferase, mean ± SD, triplicate, repeated three times
Experimental: as §2, §3, §1

[10] = six point-mutant pseudoviruses L33S, I37T, V38A, V38T, N42T, N43S
[11] = six point-mutant pseudoviruses L33S, I37T, V38A, V38T, N42T, N43S, read-out: IC50, range over mutants

| Compound | Largest decrease in susceptibility among LP-40-resistant strains [1] | Largest decrease in susceptibility among T20-resistant strains [1] | Decrease in sensitivity, range over mutants [1, 10] | IC50 [1, 11] | IC50 [2] | IC50 [3] | IC50 [4] | IC50 [5] | IC50 [6] | IC50 [7] | IC50 [8] | IC50 [9] | further results |
| --- | --- | --- | --- | --- | --- | --- | --- | --- | --- | --- | --- | --- | --- |
| CCCCCCCCCCCCCCCC(=O)NCCCC[C@H](NC(=O)[C@H](CC(=O)O)NC(=O)[C@H](CC(C)C)NC(=O)[C@H](CCC(=O)O)NC(=O)[C@H](CC(C)C)NC(=O)[C@H](CC(C)C)NC(=O)[C@H](CCC(=O)O)NC(=O)[C@H](CCC(N)=O)NC(=O)[C@H](CCC(=O)O)NC(=O)[C@H](CC(N)=O)NC(=O)[C@H](CCCCN)NC(=O)[C@H](CCC(=O)O)NC(=O)[C@H](CCC(N)=O)NC(=O)[C@H](CCC(N)=O)NC(=O)[C@H](CC(N)=O)NC(=O)[C@H](CCC(N)=O)NC(=O)[C@H](CO)NC(=O)[C@H](CCC(=O)O)NC(=O)[C@H](CCC(=O)O)NC(=O)[C@@H](NC(=O)[C@H](CC(C)C)NC(=O)[C@H](CO)NC(=O)[C@H](Cc1c[nH]cn1)NC(=O)[C@@H](NC(=O)[C@H](CC(C)C)NC(=O)[C@H](CO)NC(=O)[C@@H](NC(=O)[C@H](Cc1ccc(O)cc1)NC(C)=O)[C@@H](C)O)[C@@H](C)CC)[C@@H](C)CC)C(N)=O [LP-40] (Ac-YTSLIHSLIEESQNQQEKNEQELLELDK(Palmitoyl)-NH2) | over 227 fold | 227 fold | 6–111 fold | 0.2 to 3.5 µM | 0.0426 ± 0.0117 µM | 0.304 ± 0.0505 µM | 0.00222 ± 0.00057 µM | 0.00574 ± 0.00186 µM | 3.49 ± 0.423 µM | 1.27 ± 0.167 µM | 0.0433 ± 0.00819 µM | 0.205 ± 0.0472 µM | Decrease in sensitivity, range over strains ([1]; first group of LP-40-resistant strains (LP40-V1, LP40-V2)): 1.5–12.6 fold; Decrease in sensitivity ([1]; strains induced at LP-40 200 µM): over 227 fold; Decrease in sensitivity ([1]; viral strains induced at LP-40 8 µM and 20 µM): more than 92 fold; IC50 ([1]; viral strains induced at LP-40 8 µM and 20 µM, read-out: IC50, range over strains): 2.8 to 3.3 µM; Fold change in IC50 ([2]; E137K relative to WT NL4-3): 1.35 fold; Fold change in IC50 ([3]; N126K relative to WT NL4-3): 9.7 fold and 9.65 fold; Fold change in IC50 ([4]; D36G relative to WT NL4-3): 0.07 fold; Fold change in IC50 ([5]; Y127H relative to WT NL4-3): 0.18 fold; Fold change in IC50 ([6]; V38A relative to WT NL4-3): 110.56 fold; Fold change in IC50 ([7]; N42T relative to WT NL4-3): 40.18 fold; Fold change in IC50 ([8]; A71V relative to WT NL4-3): 1.37 fold; Fold change in IC50 ([9]; G20V relative to WT NL4-3): 6.5 fold and 6.49 fold |
| Enfuvirtide | 107 fold | up to 112 fold | 6–51 fold | 0.41 to 3.4 µM | 0.0685 ± 0.0201 µM | 0.117 ± 0.0374 µM | 0.006 ± 0.00168 µM | 0.0237 ± 0.00263 µM | 1.54 ± 0.022 µM | 0.413 ± 0.082 µM | 0.0465 ± 0.0125 µM | 0.0491 ± 0.0109 µM | Decrease in sensitivity, range over strains ([1]; strains induced at T20 2000 µM): 32- to 112 fold; Decrease in sensitivity ([1]; viral strains induced at T20 200 µM): more than 50 fold; IC50 ([1]; viral strains induced at T20 200 µM, read-out: IC50, range over strains): 2.8 to 5.3 µM; Decrease in sensitivity, range over strains ([1]; virus strain induced at T20 12 µM): one- to two |
